A word on the GI50: it is the concentration giving 50% growth inhibition.

The structures appear in SMILES notation.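 Assay format: 96-well plates, 48-hour exposure. The concentration for 50% growth inhibition is given as GI50.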 Active and inactive are the calls of the source. Cut-off read from the data, not from the text of the source: active = GI50 up to about 1.1 µM and inactive = higher.

This note sets out measurements from ChEMBL document CHEMBL1201862, “PubChem BioAssay data set” (2004).

Common to all, as to test: DTP human tumour cell line panel, 48 h
Assay [1] deals with M14.
Assay [2] relates to NCI-H522.
Assay [3] relates to HCT-116.
Assay [4] has as its system OVCAR-4.
Assay [5] deals with KM12.
In assay [6] the test system is HOP-92.
For assay [7], the system named is SF-295.
Assay [8] has as its system NCI-H226.
Assay [9] deals with OVCAR-8.
Assay [10] deals with SF-268.
Assay [11] concerns SK-OV-3.
Assay [12] deals with UO-31.
For assay [13], the system named is IGROV-1.
For assay [14], the system named is SK-MEL-2.
The test system of assay [15] is K562.
For assay [16], the system named is U-251.
The test system of assay [17] is HOP-62.
In assay [18] the test system is PC-3.
For assay [19], the system named is MDA-N.

As for `O=C(c1ccccc1)C(c1ccccc1)C1(O)C(=O)Nc2ccc(Br)cc21` (configuration not stated), the GI50 in [1] is 30.5 µM (inactive); in assay [2], 20.9 µM (inactive); in assay [3] it was 37.9 µM (inactive); in assay [4], 32.8 µM (inactive); in assay [5], 95.3 µM (inactive); in [6], 73.5 µM (inactive). Moreover, the GI50 is > 100 µM (inactive) in assay [7]; 40.5 µM (inactive) in assay [8]; 52.8 µM (inactive) in assay [9]; 72.6 µM (inactive) in [10]; > 100 µM (inactive) in assay [11]; 63.8 µM (inactive) in assay [12]. The GI50 in assay [13] is 56.4 µM (inactive); in assay [14] it was 61.1 µM (inactive); in assay [15], 18.9 µM (inactive); in assay [16], 65 µM (inactive); in [17] it was 59.3 µM (inactive).
Consider `CCOc1cc(/C=C2\N=C(c3ccccc3)N(c3nc4ccccc4s3)C2=O)ccc1O`, for which the GI50 in [1] is 44.9 µM (inactive); in assay [2] it was 23.7 µM (inactive); in [3], 42.3 µM (inactive); in [4] it was 48.3 µM (inactive); in assay [5], 48.8 µM (inactive); in assay [6] it was > 100 µM (inactive). Moreover, the GI50 is 80.2 µM (inactive) in assay [7]; 59.8 µM (inactive) in [8]; 34.7 µM (inactive) in assay [9]; 27.9 µM (inactive) in assay [18]; 42 µM (inactive) in assay [10]; > 100 µM (inactive) in [11]. The GI50 was 49 µM (inactive) in [12]; 28.6 µM (inactive) in assay [13]; 23.8 µM (inactive) in assay [14]; 31.3 µM (inactive) in assay [19]; 27.9 µM (inactive) in assay [15]; 47.9 µM (inactive) in assay [16]. Further, the GI50 in assay [17] is 75 µM (inactive).
Consider `C/C(=N\NC(=S)NC(CCC(=O)O)C(=O)O)c1ccccn1` (configuration not stated), for which the GI50 in [1], in assay [2], in assay [3], in assay [4], in assay [5] and in assay [6] was > 100 µM (inactive) in each case. For the same compound, the GI50 in [7], in [8], in [9], in [10], in assay [11] and in assay [12] was > 100 µM (inactive) each time. In addition, the GI50 in assay [13], in [14], in assay [15], in [16] and in assay [17] was > 100 µM (inactive) in each case.
As for `CCOC(=O)c1cnc2oc(/C=N/N3CC(CN4CCOCC4)OC3=O)cc2c1O` (configuration not stated), the GI50 in assay [1], in assay [3], in [4], in [5], in [6] and in assay [7] was > 100 µM (inactive) each time. Moreover, the GI50 in assay [8], in assay [9], in assay [18], in [10], in [11] and in [12] was > 100 µM (inactive) each time. Besides, the GI50 in assay [13], in [14], in assay [19], in assay [15], in [16] and in [17] was > 100 µM (inactive) in each case.
Regarding `O=C(c1nc2ccc(Cl)cc2nc1O)C(O)c1ccc2c(c1)OCO2` (configuration not stated), the GI50 was > 100 µM (inactive) in assay [1]; 13.3 µM (inactive) in [2]; 71.4 µM (inactive) in assay [4]; 63.7 µM (inactive) in assay [5]; > 100 µM (inactive) in [6]; > 100 µM (inactive) in [7]. Further, the GI50 is > 100 µM (inactive) in [8]; > 100 µM (inactive) in [9]; 91 µM (inactive) in assay [10]; > 100 µM (inactive) in assay [11]; > 100 µM (inactive) in assay [12]; > 100 µM (inactive) in assay [13]. Further, the GI50 is > 100 µM (inactive) in assay [14], 53.8 µM (inactive) in [15], > 100 µM (inactive) in assay [16] and > 100 µM (inactive) in assay [17].
With `C[C@@H](c1ccccc1)N(CC#N)[C@H]1CCC[C@]1(O)/C=C/c1ccc2c(c1)OCO2`, the GI50 in assay [1], in assay [2], in assay [3], in assay [4], in [5] and in assay [6] was > 25 µM (inactive) throughout. The GI50 in assay [7], in [8], in assay [9], in assay [18], in assay [10] and in assay [11] was > 25 µM (inactive) throughout. Moreover, the GI50 in assay [12], in assay [13], in assay [14], in assay [19], in assay [15] and in [16] was > 25 µM (inactive) throughout. The GI50 in assay [17] was > 25 µM (inactive).
Take `Nc1c(C(=O)Nc2ccccc2O)[n+]([O-])c2ccccc2[n+]1[O-]`: the GI50 in assay [1] is > 100 µM (inactive); in assay [2], 43.4 µM (inactive); in assay [3], 31.7 µM (inactive); in assay [4], > 100 µM (inactive); in assay [5], 79.3 µM (inactive); in [6], > 100 µM (inactive). Besides, the GI50 in assay [7] is 58.9 µM (inactive); in assay [8] it was > 100 µM (inactive); in [9], 64.1 µM (inactive); in assay [11] it was > 100 µM (inactive); in [12], 37.5 µM (inactive); in [13], 81.5 µM (inactive). Further, the GI50 in assay [14] was 40.2 µM (inactive); in assay [15], 41.9 µM (inactive); in assay [16], 71.8 µM (inactive); in assay [17] it was > 100 µM (inactive).
Take `CC1=C2C(=CC(C)(C)C2O)C(=O)C(C)(O)C12CC2` (configuration not stated): the GI50 in assay [1] is 0.0158 µM (active); in assay [2], 0.00469 µM (active); in assay [3], 0.00325 µM (active); in assay [4] it was 0.00513 µM (active); in [5] it was 0.0158 µM (active); in [6] it was 0.0167 µM (active). The GI50 in assay [7] was 0.00724 µM (active); in assay [8], 0.033 µM (active); in assay [9], 0.00948 µM (active); in [10], 0.00658 µM (active); in [11], 0.0262 µM (active); in [12], 0.0127 µM (active). For the same compound, the GI50 in assay [13] was 0.0153 µM (active); in assay [14], 0.0121 µM (active); in assay [15] it was 0.00558 µM (active); in assay [16], 0.0059 µM (active); in [17], 0.0119 µM (active).
With `Cc1ccc(NC(=S)N/N=C2\C(=O)Nc3ccccc32)cc1`, the GI50 was 94 µM (inactive) in [1]; > 100 µM (inactive) in assay [2]; > 100 µM (inactive) in [3]; > 100 µM (inactive) in assay [4]; > 100 µM (inactive) in assay [5]; > 100 µM (inactive) in [6]. The GI50 in assay [7] is 49.9 µM (inactive); in [8], 92.3 µM (inactive); in assay [9] it was > 100 µM (inactive); in assay [18] it was > 100 µM (inactive); in assay [10], 1.69 µM (inactive); in [11], > 100 µM (inactive). Moreover, the GI50 in [12] is 78.5 µM (inactive); in assay [13], 84.7 µM (inactive); in assay [14], 97.7 µM (inactive); in assay [19], > 100 µM (inactive); in assay [15], > 100 µM (inactive); in assay [16], > 100 µM (inactive). Besides, the GI50 in assay [17] is > 100 µM (inactive).
With `O=c1[nH]c(=O)n(C2OC(COP(=O)(O)OP(=O)(O)OC3OC(CO)C(O)C(O)C3O)C(O)C2O)cc1F` (configuration not stated), the GI50 in assay [1] is 0.234 µM (active); in [2], 0.327 µM (active); in assay [3], < 0.0129 µM (active); in assay [4] it was 1.26 µM (inactive); in assay [5] it was 0.0317 µM (active); in assay [6], 1.12 µM (active). In addition, the 50% growth inhibitory concentration (GI50) was 0.127 µM (active) in assay [7]; 0.148 µM (active) in assay [8]; 0.0966 µM (active) in [9]; 0.0475 µM (active) in assay [10]; 0.975 µM (active) in assay [11]; 0.04 µM (active) in assay [12]. Also, the 50% growth inhibitory concentration (GI50) in assay [13] is 0.125 µM (active); in assay [14], 0.486 µM (active); in [15], 0.0302 µM (active); in assay [16], 0.0577 µM (active); in [17], 0.302 µM (active).
For `O=C(OCc1ccccc1)n1cccc1`, the GI50 was > 100 µM (inactive) in assay [1]; > 100 µM (inactive) in assay [2]; 84.9 µM (inactive) in assay [3]; > 100 µM (inactive) in assay [4]; > 100 µM (inactive) in assay [5]; > 100 µM (inactive) in assay [6]. In addition, the GI50 was > 100 µM (inactive) in assay [7]; > 100 µM (inactive) in [8]; > 100 µM (inactive) in assay [9]; > 100 µM (inactive) in assay [10]; > 100 µM (inactive) in assay [11]; 46.3 µM (inactive) in assay [12]. The GI50 in assay [13] was > 100 µM (inactive); in [14], > 100 µM (inactive); in assay [15] it was 97.1 µM (inactive); in [16] it was > 100 µM (inactive); in [17] it was > 100 µM (inactive).
